The results in this text go back to PubChem BioAssay (NCI).

Among the test systems are KM12 colon; UACC-257 melanoma; EKVX NSCLC; SR leukemia; 786-0 renal; HT29 colon; M14 melanoma; OVCAR-3 ovarian; SF-539 CNS; HOP-62 NSCLC.
Experiment in all cases: NCI tumour cell line growth inhibition, 48 h

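These data come from cells grown in 96-well plates and exposed to compound for 48 hours at five concentrations. GI50 marks 50% less growth. TGI: total growth inhibition.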 Some results are limits rather than exact numbers.

For the compound `CCn1cc(-c2ccnc3[nH]ccc23)c(-c2cccc(NC(=O)Nc3ccc(OCc4ccccc4)cc3)c2)n1`, the GI50 in the assay with KM12 colon is 7.44 µM; in the assay on UACC-257 melanoma it was more than 24.1 µM; in the assay on EKVX NSCLC, 21.8 µM; in the assay with SR leukemia it was 7.25 µM; in the assay on 786-0 renal, 6.82 µM; with HT29 colon, 4.18 µM. Also, the GI50 in the assay on M14 melanoma is 14.4 µM; with OVCAR-3 ovarian it was 6.24 µM; in the assay with SF-539 CNS, 12.9 µM; with HOP-62 NSCLC it was more than 14.9 µM. The TGI with KM12 colon is more than 25 µM; with UACC-257 melanoma, more than 25 µM; in the assay with EKVX NSCLC, more than 25 µM; with SR leukemia, more than 25 µM; in the assay with 786-0 renal it was more than 25 µM; in the assay on HT29 colon, more than 20.3 µM. For the same compound, the TGI was more than 25 µM with M14 melanoma, 19.6 µM in the assay with OVCAR-3 ovarian, more than 25 µM in the assay on SF-539 CNS and more than 25 µM in the assay with HOP-62 NSCLC.
Consider `COc1ccc(C(=O)C(c2ccc(OC)cc2)C2OC(=O)C(Cl)=C2Cl)cc1` (stereo not given), for which the TGI in the assay on KM12 colon, in the assay with UACC-257 melanoma, with EKVX NSCLC, in the assay on SR leukemia, with 786-0 renal and in the assay with HT29 colon was more than 100 µM in each case. For the same compound, the TGI in the assay on M14 melanoma, with OVCAR-3 ovarian, with SF-539 CNS and with HOP-62 NSCLC was more than 100 µM each time.
Take `CN1CCN(c2cc(C(=O)Nc3cc4cc(-c5cnn(C)c5)ccc4cn3)ccn2)CC1`: the GI50 in the assay on KM12 colon is 0.071 µM; in the assay with UACC-257 melanoma, 0.146 µM; with EKVX NSCLC, 0.302 µM; with SR leukemia it was 0.0472 µM; in the assay on 786-0 renal, 0.3 µM; in the assay with HT29 colon, 0.182 µM. The GI50 is 0.22 µM in the assay with M14 melanoma, 0.0425 µM in the assay on OVCAR-3 ovarian, 0.153 µM in the assay on SF-539 CNS and 0.207 µM in the assay with HOP-62 NSCLC. Also, the TGI is 11.9 µM with KM12 colon; 10.4 µM with UACC-257 melanoma; 14.3 µM in the assay with EKVX NSCLC; 13.6 µM with SR leukemia; 10.4 µM in the assay with 786-0 renal; 0.442 µM in the assay on HT29 colon. The TGI in the assay with M14 melanoma was found to be 13.3 µM; in the assay on OVCAR-3 ovarian it was 0.288 µM; with SF-539 CNS, 2.38 µM; in the assay with HOP-62 NSCLC, 12.7 µM.
For `C[C@@H]1Cc2c([nH]c3ccccc23)[C@@H](c2c(F)cc(NC3CN(CCCF)C3)cc2F)N1CC(F)(F)CO`, the GI50 in the assay on KM12 colon is 4.21 µM; in the assay on UACC-257 melanoma it was 1.97 µM; with EKVX NSCLC it was 5.41 µM; with SR leukemia, 3.83 µM; in the assay with 786-0 renal, 8.68 µM; in the assay with HT29 colon it was 3.7 µM. For the same compound, the GI50 in the assay on M14 melanoma was 1.87 µM; in the assay on OVCAR-3 ovarian, 11.3 µM; with SF-539 CNS, 4.36 µM; in the assay with HOP-62 NSCLC, 13.6 µM. The TGI in the assay with KM12 colon was 18 µM; in the assay with UACC-257 melanoma, 4.51 µM; with EKVX NSCLC it was 19.3 µM; in the assay with SR leukemia it was more than 100 µM; with 786-0 renal, 24.7 µM; with HT29 colon, 15.3 µM. In addition, the TGI with M14 melanoma came to 3.84 µM; in the assay on OVCAR-3 ovarian, 26.3 µM; with SF-539 CNS it was 15.7 µM; with HOP-62 NSCLC, 31.1 µM.
In the case of `C=C1c2[nH]c3ccccc3c2C2C(CC)C1CCN2C` (stereo not given), the TGI was more than 100 µM with KM12 colon; 95.6 µM in the assay on UACC-257 melanoma; more than 100 µM with EKVX NSCLC; 74.8 µM in the assay on SR leukemia; more than 100 µM in the assay on 786-0 renal; more than 100 µM in the assay on HT29 colon. Besides, the TGI in the assay on M14 melanoma is 67.6 µM; in the assay on OVCAR-3 ovarian it was more than 100 µM; in the assay with SF-539 CNS it was more than 100 µM; in the assay with HOP-62 NSCLC, more than 100 µM.
As for `COC(=O)Nc1nc2ccc(C(=O)c3ccc(N(C)C4COC4)cc3)cc2[nH]1`, the GI50 was 0.36 µM with KM12 colon; more than 100 µM with UACC-257 melanoma; 0.708 µM with EKVX NSCLC; 0.188 µM with SR leukemia; 0.5 µM in the assay with 786-0 renal; 0.34 µM in the assay with HT29 colon. The GI50 with M14 melanoma was 0.279 µM; with OVCAR-3 ovarian it was 0.375 µM; in the assay with SF-539 CNS, 0.264 µM; in the assay with HOP-62 NSCLC, 0.471 µM. The TGI with KM12 colon, in the assay with UACC-257 melanoma, with EKVX NSCLC, with SR leukemia, in the assay on 786-0 renal and in the assay on HT29 colon was more than 100 µM in each case. The TGI in the assay on M14 melanoma is more than 100 µM; in the assay on OVCAR-3 ovarian it was more than 100 µM; in the assay on SF-539 CNS, 1.16 µM; in the assay with HOP-62 NSCLC, more than 100 µM.
Consider `Cc1[nH]c2ccccc2c1-c1cc(-c2cc(-c3c(C)[nH]c4ccccc34)nc(N)n2)nc(N)n1`, for which the TGI with KM12 colon, in the assay with UACC-257 melanoma, in the assay on EKVX NSCLC, with SR leukemia, with 786-0 renal and in the assay with HT29 colon was more than 100 µM in each case. Also, the TGI in the assay with M14 melanoma, with OVCAR-3 ovarian, with SF-539 CNS and with HOP-62 NSCLC was more than 100 µM each time.
In the case of `S=C(Nc1ccc(Cl)cc1)Nc1ccc(-c2nc3ccccc3o2)cc1`, the GI50 in the assay on KM12 colon is 15.8 µM; in the assay with UACC-257 melanoma, 21.4 µM; with EKVX NSCLC it was 19.4 µM; in the assay with SR leukemia, 19 µM; with 786-0 renal it was 26.3 µM; in the assay on HT29 colon, 17.4 µM. The GI50 with M14 melanoma is 23.2 µM; in the assay with OVCAR-3 ovarian, 13.6 µM; with SF-539 CNS it was 19.2 µM; with HOP-62 NSCLC, 26 µM. The TGI in the assay on KM12 colon is 42.9 µM; with UACC-257 melanoma, 45.4 µM; with EKVX NSCLC it was 64 µM; with SR leukemia it was 52.3 µM; in the assay on 786-0 renal, more than 100 µM; with HT29 colon, 41.8 µM. Further, the TGI in the assay on M14 melanoma was determined as 52.9 µM; in the assay on OVCAR-3 ovarian, 44.7 µM; in the assay with SF-539 CNS, 41.8 µM; in the assay on HOP-62 NSCLC, 57.4 µM.
For the compound `O=C(Nc1cccc(Cc2cccc(NC(=O)c3ccccc3)c2)c1)c1ccccc1`, the TGI in the assay on KM12 colon, in the assay with UACC-257 melanoma, in the assay with EKVX NSCLC, with SR leukemia, in the assay with 786-0 renal and in the assay on HT29 colon was more than 100 µM each time. Besides, the TGI in the assay on M14 melanoma is more than 100 µM; in the assay with OVCAR-3 ovarian, more than 100 µM; with SF-539 CNS, 39.6 µM; in the assay on HOP-62 NSCLC it was 60.9 µM.
As to `COC(=O)NC1(NC(=O)OC)NC(=O)c2cc(OC)c(OC)c(OC)c2N1`, the TGI in the assay on KM12 colon, with UACC-257 melanoma, with EKVX NSCLC, with SR leukemia, with 786-0 renal and with HT29 colon was more than 100 µM throughout. Besides, the TGI with M14 melanoma, in the assay with OVCAR-3 ovarian, in the assay with SF-539 CNS and in the assay with HOP-62 NSCLC was more than 100 µM each time.
On to `CC(=O)N1c2ccccc2NC2=C(C(=O)N(Cc3ccccc3)C2(C)C)C1c1ccco1` (stereo not given), for which the GI50 is 0.579 µM in the assay on KM12 colon; more than 25 µM with UACC-257 melanoma; 1.73 µM with EKVX NSCLC; 0.463 µM in the assay on SR leukemia; 1.26 µM with 786-0 renal; 0.755 µM in the assay on HT29 colon. Also, the GI50 in the assay on M14 melanoma is 0.748 µM; with OVCAR-3 ovarian it was 0.208 µM; in the assay on SF-539 CNS, 0.395 µM; in the assay on HOP-62 NSCLC, 1.25 µM. The TGI was more than 16.4 µM with KM12 colon; more than 25 µM with UACC-257 melanoma; more than 25 µM with EKVX NSCLC; more than 25 µM with SR leukemia; more than 23.1 µM in the assay on 786-0 renal; more than 25 µM in the assay on HT29 colon. Further, the TGI is 5.31 µM in the assay on M14 melanoma, 1.42 µM with OVCAR-3 ovarian, 1.17 µM in the assay with SF-539 CNS and more than 25 µM in the assay with HOP-62 NSCLC.
In the case of `Fc1ccc(-c2ncn(C3CCNCC3)c2-c2ccnc(Oc3ccc(F)c(F)c3)n2)cc1`, the GI50 with KM12 colon is 6.71 µM; in the assay with UACC-257 melanoma, 4.76 µM; with EKVX NSCLC, more than 14.6 µM; in the assay with SR leukemia it was 6.23 µM; in the assay with 786-0 renal it was 8.97 µM; in the assay on HT29 colon it was 4.36 µM. The GI50 in the assay with M14 melanoma is 4.8 µM; with OVCAR-3 ovarian it was 6.68 µM; in the assay on SF-539 CNS, 4.94 µM; with HOP-62 NSCLC it was 4.83 µM. Further, the TGI was more than 16.2 µM in the assay on KM12 colon; 9.15 µM with UACC-257 melanoma; more than 25 µM in the assay with EKVX NSCLC; 13.4 µM in the assay on SR leukemia; more than 16.2 µM in the assay on 786-0 renal; 8.12 µM in the assay with HT29 colon. The TGI in the assay on M14 melanoma was 8.97 µM; in the assay with OVCAR-3 ovarian it was more than 14.4 µM; with SF-539 CNS, 9.8 µM; in the assay on HOP-62 NSCLC, 9.56 µM.
